According to patent US9517221B2, “(2R)-2-propyloctanoic acid for functional brain disease” (ONO PHARMACEUTICAL CO., LTD., priority 2006, dated 2016):

Tested on: olfactory bulbectomized rats
Assay: Influence on hyperemotional score in olfactory bulbectomized rats (Test Example 4-2)
Assay type: in vivo, rat
Details: oral once a day for 7 days; present tense
Description: Wistar male rats are used in the test. By fixing the head of each rat under pentobarbital sodium anesthesia to a brain stereotaxic apparatus, the head skin is incised and then holes are opened at right and left olfactory bulb regions using a dental drill to suck and remove the right and left olfactory bulbs using an aspirator. The head skin is stitched thereafter. In this connection, the suction and removal of olfactory bulbs are not carried out in the sham-operation group, and the head skin is stitched after opening holes at right and left olfactory bulb regions. The rats after extraction of the olfactory bulbs are put into a series of five stainless steel cages, each of which is partitioned into two parts with an acrylic board for individual rearing space, and individually reared for 2 weeks under a dark condition, and then subjected to the following tests of <4-2> and <4-3>.
The vehicle and test drug are orally administered once a day repeatedly for 7 days. The evaluation is carried out under a quiet environment, before the grouping and on the 1st and 7th days after administration of the test drug. The degree of irritability is scored in accordance with the evaluation criteria shown below, before the grouping and before the administration of 7 days test drug administration, and after 1 hour of the administration of test drug administration of 1 day and 7 days. […]

CCCCCC[C@@H](CCC)C(=O)O [(2R)-2-propyloctanoic acid]
Development of hyperemotionality versus vehicle group: inhibits development of hyperemotionality
